From patent publication US20120316199A1, “COMPOSITIONS AND METHODS FOR TREATING, CONTROLLING, REDUCING, OR AMELIORATING INFLAMMATORY PAIN” (priority 2011, published 2012)
Values joined by “and” are separate entries in the source; they are usually repeats but may differ in a detail not shown here. Equal entries are not always repeated. “Also recorded” adds a separate entry of the source.

Assays:
COX-2 = COX-2 protein in IL-1β-induced human conjunctival fibroblasts (Western blot); type: cell-based; conditions: pretreated 2 h, then IL-1β 24 h; Western blot normalized to GAPDH (FIG. 7)
Method: Cells were washed with ice-cold PBS and lysed in cell lysis buffer (62.5 mM Tris-HCl, pH 6.8, 2% sodium dodecyl sulfate (SDS), 10% glycerol). Cells were sonicated, and centrifuged at 12,000 rpm and protein concentration was determined using the Micro BCA protein assay kit. Proteins in aliquots of cell lysate (˜20 μg protein) were separated by SDS-polyacrylamide electrophoresis (SDS-PAGE) on 10% gels and transferred to PVDF membranes. Membranes were blocked with 5% BSA and exposed to mouse anti-COX-2 antibody (Caymen). The blots were washed, and exposed to horseradish peroxidase-conjugated anti-mouse secondary antibody. After washing, blots were incubated in ECL (enhanced chemiluminescence) solutions and chemiluminescent bands were visualized using the Fluor Chem imaging system (AlphaInnotech, San Leandro, Calif.). Blots were then stripped and re-probed for glyceraldehyde 3-phosphate dehydrogenase (GAPDH) (Zymed) antibody as loading controls. The experiment was repeated 3 times. Analysis of Western blot band density for COX-2 and GAPDH in captured digital images was done using the Alpha-Innotech Chemi-Imager software (Alpha Innotech; San Leandro, Calif.). Levels of COX-2 protein were normalized to GAPDH.

visual acuity = assay: Clinical study after cataract surgery: Snellen visual acuity (safety); type: in vivo, human; conditions: overall
Excerpt: (§1) There were 8 treatment groups in this study, consisting of three drug doses, vehicle and three dosing frequencies (see also Table 4-1): • Group A: 1% BOL-303242-X ophthalmic suspension, two times per day (BID) • Group B: 2% BOL-303242-X ophthalmic suspension, one time per day (QD) • Group C: 2% BOL-303242-X ophthalmic suspension, BID • Group D: 2% BOL-303242-X ophthalmic suspension, four times per day (QID) • Group E: 3% BOL-303242-X ophthalmic suspension, QD • Group F: 3% BOL-303242-X ophthalmic suspension, BID • Group G: 3% BOL-303242-X ophthalmic suspension, QID • Group H: Vehicle for BOL-303242-X (divided equally into QID, BID, and QD)
(§2) Visit 1 (screening), Visit 2 (cataract surgery), Visit 3 (postoperative Day 1), Visit 4 (postoperative Day 3±1 day), Visit 5 (postoperative Day 8±1 day), Visit 6 (postoperative Day 15±1 day), Visit 7 (postoperative Day 18±1 day). Subject assessments included adverse events (AEs), concomitant medications, ocular symptoms, pinholed Snellen visual acuity (VA), intraocular pressure (IOP), ocular signs (biomicroscopy), fundoscopy, and study drug drop sensation. In addition, subject diaries were collected and reviewed for accuracy and treatment compliance.
(§3) Safety: The safety endpoints in this study were: incidence of AEs, change in IOP, ocular signs (biomicroscopy), Snellen VA, fundoscopy, study drug drop sensation assessment.

ocular signs = assay: Clinical study after cataract surgery: ocular signs (biomicroscopy); type: in vivo, human
Excerpt: as §1, §2, §3

[1] = test system: IL-1β-stimulated cytokine expression in primary human corneal epithelial cells; assay: IL-1β-stimulated cytokine production in primary human corneal epithelial cells (30-cytokine Luminex kit); conditions: HCECs
Method: Primary HCECs were seeded in 24-well plates. […] Each treatment was performed in triplicate. Media were collected and used for determination of cytokine content using a 30-cytokine Luminex kit. Cell viability was determined by alamarBlue assay (LP06013).
Median fluorescence intensity (MFI) was used to obtain the concentration of each cytokines in pg/ml based on the standard curve of each cytokine assayed by Luminex. The linear range of the standard curve for each cytokine was used for determination of cytokine concentration. Duplicate values for each sample were averaged. Data were expressed as mean±SD. Statistical analysis was performed using one-way ANOVA-Dunnett's test, and P<0.05 was considered statistically significant.

[2] = test system: New Zealand White rabbits; assay: Mortality/morbidity in New Zealand White rabbits, topical dosing four times daily; type: in vivo; conditions: for Mortality (rabbits that died or were euthanized between Days 11 and 33): right eye four times daily, Days 1-31
Method: On Days 1-31, animals received daily topical doses of the appropriate test article into the right eye. Animals were dosed four times per day, with doses administered 2 hours apart. Doses were administered using a calibrated 50-μL pipette. The eyelids were held close for 10 seconds immediately following dosing. The time of each dose administration was recorded.
Animals determined to be moribund were euthanized with an intravenous injection of commercial euthanasia solution.

pupillary diameter = assay: Pupillary diameter measurement, rabbit paracentesis model; type: in vivo, Rabbit (New Zealand); conditions: for Pupillary diameter T2: −5 min: 5 min before the first paracentesis; for Pupillary diameter T2: −5 min / Pupillary diameter T3: +115 min / Pupillary diameter T1: −180 min: raw data per eye, listed as BOL; for Pupillary diameter T3: +115 min: 5 min before the second paracentesis; for Pupillary diameter T1: −180 min: basal; for Mean (mm) Δ(T3 − T1) of pupillary diameter: group mean, n=8 eyes
[3] = test system: PGE2 release by IL-1β-induced human conjunctival fibroblasts (HConF); assay: IL-1β-induced PGE2 release in human conjunctival fibroblasts (ELISA); type: cell-based; conditions: 3, 10, 30, 100, 300, 1000 nM, 18 hours; ELISA (FIG. 6)
Method: Human conjunctival fibroblasts (HConF) were seeded in 24-well plates in complete Fibroblast Medium (FM) which contained 2% fetal bovine serum (FBS) and Fibroblast Growth Supplement (FGS). After reaching confluence (about 95%), cells were conditioned in basic FM that had been supplemented with 0.5% charcoal-dextran treated fetal bovine serum (CD-FBS) and without Fibroblast Growth Supplement (FGS) for 24 hours. […] Plates were performed in triplicate. Culture media were evaluated for PGE, release by ELISA.

[4] = Group D, 1 mg/g (0.05 mg/dose) 4 x daily, individual rabbit

Question: With `Cc1ccc2c(NC[C@](O)(CC(C)(C)c3cc(F)cc4c3OCC4)C(F)(F)F)cccc2n1` [BOL-303242-X, mapracorat] as the compound, how does the “Inhibition of COX-2 production by IL-1β-induced HConF” value (COX-2) read?
Answer: inhibition of COX-2 production; also recorded: successfully inhibits

Question: What about the “subjects whose VA did not decline by two lines or more” value (visual acuity) of the same compound?
Answer: more than 92%

Question: What about the “proportions of subjects with increases in scores for anterior vitreous haze, corneal edema, corneal staining, eyelid erythema, hyphema, and posterior synechiae” value (ocular signs; any dose groups at any postoperative visits) of the same compound?
Answer: No statistically significant differences

Question: And the “proportions of subjects with increases in scores for AC cells, AC flare, bulbar conjunctival injection, chemosis, ciliary flush, palpebral conjunctival injection” value (ocular signs; certain dose groups at Visits 4, 5, 7 as listed)?
Answer: statistically significantly lower proportions of subjects with increases in scores

Question: What about the “Potency relative to dexamethasone, inhibition of IL-1β-stimulated IL-6, IL-7, TGF-α, TNF-α, VGEF, and MCP-1” value [1] of the same compound?
Answer: comparable potency

Question: And the “Potency relative to dexamethasone, inhibition of IL-1β-stimulated production of G-CSF” value [1]?
Answer: more potent than dexamethasone

Question: What about the “Potency relative to dexamethasone, inhibition of IL-1β-stimulated production of GM-CSF, IL-8, and RANTES” value [1] of the same compound?
Answer: somewhat less potent than dexamethasone

Question: And the “Inhibition of IL-1β-stimulated production of IL-6, IL-7, MCP-1, TGF-α, TNF-α and VEGF” value ([1]; 10 ng/ml IL-1β, 18 h, comparable potency of both compounds)?
Answer: significantly inhibited

Question: What about the “Effect on IL-1β-stimulated G-CSF production” value ([1]; 18 h) of the same compound?
Answer: significantly inhibited

Question: What about the “Inhibition of IL-1β-stimulated production of GM-CSF, IL-8, and RANTES” value ([1]; 18 h, less potency compared to dexamethasone) of the same compound?
Answer: significantly inhibited

Question: And the “Mortality (rabbits that died or were euthanized between Days 11 and 33)” value ([2]; 0.05 mg/dose (0.1% dexamethasone suspension or 1 mg/g BOL-303242-X))?
Answer: one of ten

Question: And the “Mortality (rabbits that died or were euthanized between Days 11 and 33)” value ([2]; 5 mg/g suspension ([…]))?
Answer: two of ten

Question: What about the “Morbidity noted in a surviving rabbit” value ([2]; 10 mg/g (0.5 mg/dose), one surviving rabbit (Group B, No. 3048)) of the same compound?
Answer: diarrhea on Day 18

Question: And the “Mortality (rabbits that died or were euthanized between Days 11 and 33)” value ([2]; 10 mg/g suspension (0.5 mg/dose))?
Answer: one of ten

Question: What about the “Mortality rate per dose level” value ([2]; 0.05, 0.25, or 0.5 mg/dose four times daily up to 31 days) of the same compound?
Answer: 1-2 deaths per 10 rabbits

Question: And the “Day of Death (day euthanized or found dead)” value ([2]; Group B, 10 mg/g (0.5 mg/dose) 4 x daily, individual rabbit)?
Answer: 11

Question: What about the “Day of Death (day euthanized or found dead)” value [2, 4] of the same compound?
Answer: 29

Question: What about the “Recorded Notes on death” value [2, 4] of the same compound?
Answer: Found dead.

Question: What about the “Pupillary diameter T2: −5 min” value (pupillary diameter; 0.1% formulation) of the same compound?
Answer: 6.5 mm and 7.0 mm and 7.5 mm

Question: What about the “Pupillary diameter T3: +115 min” value (pupillary diameter; 0.1% formulation) of the same compound?
Answer: 5.0 mm and 6.0 mm and 6.5 mm and 5.5 mm

Question: What about the “Pupillary diameter T1: −180 min” value (pupillary diameter; 0.1% formulation) of the same compound?
Answer: 6.5 mm and 7.0 mm and 7.5 mm

Question: What about the “Mean (mm) Δ(T3 − T1) of pupillary diameter” value (from here on “Mean (mm) Δ(T3 − T1)”) (pupillary diameter; 0.1% formulation) of the same compound?
Answer: −1.1 mm

Question: What about the “Pupillary diameter T2: −5 min” value (pupillary diameter; 0.5% formulation) of the same compound?
Answer: 8.0 mm and 7.0 mm and 7.5 mm

Question: And the “Pupillary diameter T3: +115 min” value (pupillary diameter; 0.5% formulation)?
Answer: 6.5 mm and 6.0 mm and 7.0 mm

Question: And the “Pupillary diameter T1: −180 min” value (pupillary diameter; 0.5% formulation)?
Answer: 8.0 mm and 7.0 mm and 7.5 mm

Question: What about the “Mean (mm) Δ(T3 − T1)” value (pupillary diameter; 0.5% formulation) of the same compound?
Answer: −1.0 mm

Question: What about the “Pupillary diameter T2: −5 min” value (pupillary diameter; 1% formulation) of the same compound?
Answer: 6.0 mm and 6.5 mm and 7.0 mm

Question: What about the “Pupillary diameter T3: +115 min” value (pupillary diameter; 1% formulation) of the same compound?
Answer: 5.5 mm and 5.0 mm and 6.0 mm

Question: And the “Pupillary diameter T1: −180 min” value (pupillary diameter; 1% formulation)?
Answer: 6.0 mm and 6.5 mm

Question: And the “Mean (mm) Δ(T3 − T1)” value (pupillary diameter; 1% formulation)?
Answer: −0.9 mm

Question: And the “Inhibition of PGE2 production by IL-1β-induced HConF” value [3]?
Answer: successfully inhibits
